What follows are compounds tested against human STAT6 (Homo sapiens (Human), UniProt P42226) (assay: Surface plasmon resonance assay (Biacore 8K, binding to immobilized STAT6)). Settings: human STAT6 aa122-658, N-terminal His-tag, CM5 chip, 25° C.; geometric mean; read-out: STAT6 SPR Kd.
Protocol: Biacore instruments from the 8K-series (Cytiva) were used, and measurements were performed at 25° C. Human STAT6 (truncated, aa122-658, with N-terminal His-tag, expressed in insect cells) was immobilized in the active flow cells on a CM5 chip using amine-coupling (default settings) at 10 μg/ml in 10 mM acetate buffer pH 5.5, at a contact time of 120-420 sec. and a flow rate of 10 μl/min. Reference flow cells were deactivated using blank immobilization. PBS-P+ (Cytiva) supplemented with 2% DMSO was used as running buffer, and solvent correction was applied. Compounds were tested by multi-cycle kinetics injections using a contact time of 60 sec., dissociation time of up to 300 sec., and a flow rate of 30 μl/min.
Solvent-corrected, reference-subtracted and blank-corrected data was processed and binding isotherms were fitted according to a single report point from each sensorgram (Standard: Late binding (5 sec. before injection end); alternative: Earlier report point according to binding profile). Data fitting was done both with unfixed Rmax and with Rmax fixed to the theoretical value* assuming 1:1 binding to allow processing of data from both weak and strong binders as well as to evaluate binding stoichiometry.
Positive controls were run at the beginning, during, and at the end of the screen to evaluate surface activity.

human STAT6, sequence (P42226 122-658): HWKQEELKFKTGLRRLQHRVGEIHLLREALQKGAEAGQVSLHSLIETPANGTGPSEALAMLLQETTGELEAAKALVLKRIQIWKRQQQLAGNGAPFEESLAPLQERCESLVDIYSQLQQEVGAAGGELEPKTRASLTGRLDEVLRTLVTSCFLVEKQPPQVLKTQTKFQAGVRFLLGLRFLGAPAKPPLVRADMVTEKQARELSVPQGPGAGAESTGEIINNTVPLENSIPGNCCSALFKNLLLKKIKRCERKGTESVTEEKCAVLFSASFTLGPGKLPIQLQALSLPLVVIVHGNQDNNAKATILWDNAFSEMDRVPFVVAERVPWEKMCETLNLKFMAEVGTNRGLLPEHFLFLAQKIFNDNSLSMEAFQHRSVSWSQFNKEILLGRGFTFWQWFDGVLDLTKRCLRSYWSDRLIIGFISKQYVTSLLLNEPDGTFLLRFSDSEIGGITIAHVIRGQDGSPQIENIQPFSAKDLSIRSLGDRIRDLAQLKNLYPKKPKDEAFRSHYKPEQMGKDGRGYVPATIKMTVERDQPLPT

SMILES | Kd
CN(C)C(=O)c1ccc(C2CCN(Cc3cc4c(-c5ccc(N)nc5C(F)(F)F)ccnc4n3C)CC2)cc1 [Example 1k17, 4-[1-[[4-[6-Amino-2-(trifluoromethyl)-3-pyridyl]-1-methyl-pyrrolo[2,3-b]pyridin-2-yl]methyl]-4-piperidyl]-N,N-dimethyl-benzamide] | 212 nM
CN(C)C(=O)c1ccc(C2CCN(Cc3cc4c(-c5ccc(N)nc5OC(F)(F)F)ccnc4n3C)CC2)cc1 [Example 1k18, 4-[1-[[4-[6-Amino-2-(trifluoromethoxy)-3-pyridyl]-1-methyl-pyrrolo[2,3-b]pyridin-2-yl]methyl]-4-piperidyl]-N,N-dimethyl-benzamide] | 153 nM
CN(C)C(=O)c1ccc(C2CCN(Cc3cc4c(-c5cnc(N)c(C#N)c5)ccnc4n3C)CC2)cc1 [Example 1k21, 4-[1-[[4-(6-Amino-5-cyano-3-pyridyl)-1-methyl-pyrrolo[2,3-b]pyridin-2-yl]methyl]-4-piperidyl]-N,N-dimethyl-benzamide] | 935 nM
[2H]C([2H])([2H])N(C(=O)c1ccc(C2CCN(Cc3cc4c(-c5ccc(N)nc5OC)ccnc4n3C)CC2)cc1)C([2H])([2H])[2H] [Example 1k23, 4-[1-[[4-(6-Amino-2-methoxy-3-pyridyl)-1-methyl-pyrrolo[2,3-b]pyridin-2-yl]methyl]-4-piperidyl]-N,N-bis(trideuteriomethyl)benzamide] | 25.5 nM
CN(C)C(=O)c1ccc(C2CCN(Cc3cc4c(-c5cnc(N)c(S(C)(=O)=O)c5)ccnc4n3C)CC2)cc1 [Example 1k25, 4-[1-[[4-(6-Amino-5-methylsulfonyl-3-pyridyl)-1-methyl-pyrrolo[2,3-b]pyridin-2-yl]methyl]-4-piperidyl]-N,N-dimethyl-benzamide] | 6050 nM
COC(=O)CNc1ccc(-c2ccnc3c2cc(CN2CCC(c4ccc(C(=O)N(C)C)cc4)CC2)n3C)cn1 [Example 1k26, Methyl 2-[[5-[2-[[4-[4-(dimethylcarbamoyl)phenyl]-1-piperidyl]methyl]-1-methyl-pyrrolo[2,3-b]pyridin-4-yl]-2-pyridyl]amino]acetate] | 16.8 nM
CC(=O)Nc1cc(C)c(-c2ccnc3c2cc(CN2CCC(c4ccc(C(=O)N(C)C)cc4)CC2)n3C)cn1 [Example 1k28, 4-[1-[[4-(6-Acetamido-4-methyl-3-pyridyl)-1-methyl-pyrrolo[2,3-b]pyridin-2-yl]methyl]-4-piperidyl]-N,N-dimethyl-benzamide] | 428 nM
Cc1cc(N)cc(C)c1-c1ccnc2c1cc(CN1CCC(c3ccc(C(=O)N(C)C)cc3)CC1)n2C [Example 1k32, 4-[1-[[4-(4-Amino-2,6-dimethyl-phenyl)-1-methyl-pyrrolo[2,3-b]pyridin-2-yl]methyl]-4-piperidyl]-N,N-dimethyl-benzamide] | 1230 nM
CN(C)C(=O)c1ccc(C2CCN(Cc3cc4c(-c5cnc(N)c(CO)c5)ccnc4n3C)CC2)cc1 [Example 1k34, 4-[1-[[4-[6-Amino-5-(hydroxymethyl)-3-pyridyl]-1-methyl-pyrrolo[2,3-b]pyridin-2-yl]methyl]-4-piperidyl]-N,N-dimethyl-benzamide] | 245 nM
CCOC(=O)c1nc(N)ccc1-c1ccnc2c1cc(CN1CCC(c3ccc(C(=O)N(C)C)cc3)CC1)n2C [Example 1k35, Ethyl 6-amino-3-[2-[[4-[4-(dimethylcarbamoyl)phenyl]-1-piperidyl]methyl]-1-methyl-pyrrolo[2,3-b]pyridin-4-yl]pyridine-2-carboxylate] | 11 nM
CN(C)C(=O)c1ccc(C2CCN(Cc3cc4c(-c5cnc(N)c(C(F)(F)F)c5)ccnc4n3C)CC2)cc1 [Example 1k36, 4-[1-[[4-[6-Amino-5-(trifluoromethyl)-3-pyridyl]-1-methyl-pyrrolo[2,3-b]pyridin-2-yl]methyl]-4-piperidyl]-N,N-dimethyl-benzamide] | 1120 nM
[2H]C([2H])([2H])N(C(=O)c1ccc(C2CCN(Cc3cc4c(-c5ccc(NC)nc5)ccnc4n3C)CC2)cc1)C([2H])([2H])[2H] [Example 1k38, 4-[1-[[1-Methyl-4-[6-(methylamino)-3-pyridyl]pyrrolo[2,3-b]pyridin-2-yl]methyl]-4-piperidyl]-N,N-bis(trideuteriomethyl)benzamide] | 27.7 nM
CC(=O)Nc1ccc(-c2ccnc3c2cc(CN2CCC(c4ccc(C(=O)N(C)C)cc4)CC2)n3C)c(C)n1 [Example 1k40, 4-[1-[[4-(6-Acetamido-2-methyl-3-pyridyl)-1-methyl-pyrrolo[2,3-b]pyridin-2-yl]methyl]-4-piperidyl]-N,N-dimethyl-benzamide] | 475 nM
[2H]C([2H])([2H])n1c(CN2CCC(c3ccc(C(=O)N(C)C)cc3)CC2)cc2c(-c3ccc(N)nc3C#N)ccnc21 [Example 1k45, 4-[1-[[4-(6-Amino-2-cyano-3-pyridyl)-1-(trideuteriomethyl)pyrrolo[2,3-b]pyridin-2-yl]methyl]-4-piperidyl]-N,N-dimethyl-benzamide] | 27.7 nM
CN(C)C(=O)c1ccc(C2CCN(Cc3cc4c(-c5cnc(N)c(OC(F)(F)F)c5)ccnc4n3C)CC2)cc1 [Example 1k48, 4-[1-[[4-[6-Amino-5-(trifluoromethoxy)-3-pyridyl]-1-methyl-pyrrolo[2,3-b]pyridin-2-yl]methyl]-4-piperidyl]-N,N-dimethyl-benzamide] | 8230 nM

Continued, values first:

Kd | SMILES
738 nM | COc1c(N)ncc(-c2ccnc3c2cc(CN2CCC(c4ccc(C(=O)N(C)C)cc4)CC2)n3C)c1C [Example 1k19, 4-[1-[[4-(6-Amino-5-methoxy-4-methyl-3-pyridyl)-1-methyl-pyrrolo[2,3-b]pyridin-2-yl]methyl]-4-piperidyl]-N,N-dimethyl-benzamide]
1510 nM | Cc1nc(-c2ccnc3c2cc(CN2CCC(c4ccc(C(=O)N(C)C)cc4)CC2)n3C)cnc1N [Example 1k20, 4-[1-[[4-(5-Amino-6-methyl-pyrazin-2-yl)-1-methyl-pyrrolo[2,3-b]pyridin-2-yl]methyl]-4-piperidyl]-N,N-dimethyl-benzamide]
336 nM | CN(C)C(=O)c1ccc(C2CCN(Cc3cc4c(-c5cnc(N)c(C(F)F)c5)ccnc4n3C)CC2)cc1 [Example 1k24, 4-[1-[[4-[6-Amino-5-(difluoromethyl)-3-pyridyl]-1-methyl-pyrrolo[2,3-b]pyridin-2-yl]methyl]-4-piperidyl]-N,N-dimethyl-benzamide]
5030 nM | CN(C)C(=O)c1ccc(C2CCN(Cc3cc4c(-c5cnc(N)cc5C(F)(F)F)ccnc4n3C)CC2)cc1 [Example 1k27, 4-[1-[[4-[6-Amino-4-(trifluoromethyl)-3-pyridyl]-1-methyl-pyrrolo[2,3-b]pyridin-2-yl]methyl]-4-piperidyl]-N,N-dimethyl-benzamide]
62.1 nM | Cc1cc(N)ncc1-c1ccnc2c1cc(CN1CCC(c3ccc(C(=O)N(C)C)cc3)CC1)n2C [Example 1k30, 4-[1-[[4-(6-Amino-4-methyl-3-pyridyl)-1-methyl-pyrrolo[2,3-b]pyridin-2-yl]methyl]-4-piperidyl]-N,N-dimethyl-benzamide]
78.5 nM | Cc1cc(-c2ccnc3c2cc(CN2CCC(c4ccc(C(=O)N(C)C)cc4)CC2)n3C)c(C)nc1N [Example 1k31, 4-[1-[[4-(6-Amino-2,5-dimethyl-3-pyridyl)-1-methyl-pyrrolo[2,3-b]pyridin-2-yl]methyl]-4-piperidyl]-N,N-dimethyl-benzamide]
2770 nM | COc1cc(-c2ccnc3c2cc(CN2CCC(c4ccc(C(=O)N(C)C)cc4)CC2)n3C)c(C)nc1N [Example 1k33, 4-[1-[[4-(6-Amino-5-methoxy-2-methyl-3-pyridyl)-1-methyl-pyrrolo[2,3-b]pyridin-2-yl]methyl]-4-piperidyl]-N,N-dimethyl-benzamide]
2280 nM | Cc1nc(N)cnc1-c1ccnc2c1cc(CN1CCC(c3ccc(C(=O)N(C)C)cc3)CC1)n2C [Example 1k39, 4-[1-[[4-(5-Amino-3-methyl-pyrazin-2-yl)-1-methyl-pyrrolo[2,3-b]pyridin-2-yl]methyl]-4-piperidyl]-N,N-dimethyl-benzamide]
188 nM | CN(C)C(=O)c1ccc(C2CCN(Cc3cc4c(-c5cnc(N)nc5C#N)ccnc4n3C)CC2)cc1 [Example 1k41, 4-[1-[[4-(2-Amino-4-cyano-pyrimidin-5-yl)-1-methyl-pyrrolo[2,3-b]pyridin-2-yl]methyl]-4-piperidyl]-N,N-dimethyl-benzamide]
731 nM | Cc1c(-c2ccnc3c2cc(CN2CCC(c4ccc(C(=O)N(C)C)cc4)CC2)n3C)cnc(N)c1C#N [Example 1k42, 4-[1-[[4-(6-Amino-5-cyano-4-methyl-3-pyridyl)-1-methyl-pyrrolo[2,3-b]pyridin-2-yl]methyl]-4-piperidyl]-N,N-dimethyl-benzamide]
1210 nM | CN(C)C(=O)c1ccc(C2CCN(Cc3cc4c(-c5cnc(N)c(N(C)C)c5)ccnc4n3C)CC2)cc1 [Example 1k47, 4-[1-[[4-[6-Amino-5-(dimethylamino)-3-pyridyl]-1-methyl-pyrrolo[2,3-b]pyridin-2-yl]methyl]-4-piperidyl]-N,N-dimethyl-benzamide]
148 nM | CN(C)C(=O)c1ccc(C2CCN(Cc3cc4c(-c5cnc(N)cc5CO)ccnc4n3C)CC2)cc1 [Example 1k49, 4-[1-[[4-[6-Amino-4-(hydroxymethyl)-3-pyridyl]-1-methyl-pyrrolo[2,3-b]pyridin-2-yl]methyl]-4-piperidyl]-N,N-dimethyl-benzamide]

Source: patent publication US20250340551A1, “SMALL MOLECULE MODULATORS OF STAT6” (Gilead Sciences, Inc., priority 2024, published 2025)
